Values quoted from earlier work in patent US20110059177A1, “Cardioplegia Solution for Cardiac Surgery” (priority 2008, published 2011).

How the values were obtained:
[1] = system: common carotid artery IMT (intima-media thickness); details: patients with coronary artery disease, 6 months

activity level relative to tetracycline (150 mg of minocycline vs 250 mg of tetracycline at 24-48 hours) [times]	serum levels relative to most other tetracyclines (result of long half-life)	SMILES	common carotid artery IMT (intima-media thickness) [1]	markers of inflammation [1]
		CCOC(=O)C1=C(C)NC(C)=C(C(=O)OCC)C1c1ccccc1/C=C/C(=O)OC(C)(C)C [Lacidipine]	significant reduction	decrease
16	2-4 times	CN(C)c1ccc(O)c2c1C[C@H]1C[C@H]3[C@H](N(C)C)C(O)=C(C(N)=O)C(=O)[C@@]3(O)C(O)=C1C2=O [Minocycline]		
